Laboratory results taken from ChEMBL document CHEMBL1135979, “Novel sigma receptor ligands. Part 2. SAR of spiro[[2]benzopyran-1,4'-piperidines] and spiro[[2]benzofuran-1,4'-piperidines] with carbon substituents in position 3” (J Med Chem, 2002).

Target: Sigma-2 receptor (Rattus norvegicus)
Test: Ability to displace [3H]ditolylguanidine in the presence of 100 nM (+)-pentazocine from Sigma opioid receptor type 2 of rat liver

Work on `OC1Cc2ccccc2C2(CCN(Cc3ccccc3)CC2)O1` (stereo not drawn) yielded a Ki of 513 nM.

Organism: Rattus norvegicus
Test: Ratio of binding affinity towards Sigma opioid receptor type 1 versus Sigma opioid receptor type 2

Point of comparison: `CCOC(=O)C1Cc2ccccc2C2(CCN(Cc3ccccc3)CC2)O1` (stereo not drawn), Selectivity 1130. Against it:
- CCOC(=O)CC1OC2(CCN(Cc3ccccc3)CC2)c2ccccc21 (stereo not drawn) — lower, 449
- OC1Cc2ccccc2C2(CCN(Cc3ccccc3)CC2)O1 (stereo not drawn) — lower, 236
- CCOC(=O)C1OC2(CCN(Cc3ccccc3)CC2)c2ccccc21 (stereo not drawn) — lower, 796
- N#CCC1OC2(CCN(Cc3ccccc3)CC2)c2ccccc21 (stereo not drawn) — lower, 768
- O=CCC1Cc2ccccc2C2(CCN(Cc3ccccc3)CC2)O1 (stereo not drawn) — lower, 180
- OCCC1Cc2ccccc2C2(CCN(Cc3ccccc3)CC2)O1 (stereo not drawn) — lower, 668
- OCC1Cc2ccccc2C2(CCN(Cc3ccccc3)CC2)O1 (stereo not drawn) — lower, 292
- CCOC(=O)CC1Cc2ccccc2C2(CCN(Cc3ccccc3)CC2)O1 (stereo not drawn) — lower, 124
- N#CCC1Cc2ccccc2C2(CCN(Cc3ccccc3)CC2)O1 (stereo not drawn) — lower, 295
- CNCCC1Cc2ccccc2C2(CCN(Cc3ccccc3)CC2)O1 (stereo not drawn) — lower, 29

Target: Sigma non-opioid intracellular receptor 1 (Cavia porcellus)
Test: Ability to displace [3H](+)-pentazocine from Sigma opioid receptor type 1 of guinea pig brain

Compound `OC1Cc2ccccc2C2(CCN(Cc3ccccc3)CC2)O1` (stereo not drawn) has a Ki of 2.17 nM.
